{"source": "patent US6737383B1", "about": "“Herbicidal oxadiazolidines” (priority 1999, dated 2004)", "key": {"[1]": {"system": "Abutilon theophrasti (ABUTH)", "assay": "Test F preemergence, alone and in mixture with rimsulfuron, ABUTH", "assay_type": "in vivo", "conditions": "21 days after treatment, 0-100 scale", "protocol": "(§1) Abutilon theophrasti (ABUTH), Chenopodium album (CHEAL), Amaranthus rudis (AMATA), Setaria faberii (SETFA), Panicum dichotomiflorum (PANDI), and Digitaria sanguinalis (DIGSA) were grown from seed in pots of an artificial potting mixture in a greenhouse. Compounds of the present invention were applied at 70 and 105 g ai/ha preemergence. Rimsulfuron was applied at 8.8 and 17.5 g ai/ha. Mixtures of the compounds of the present invention and rimsulfuron were also applied.\n(§2) Following application, the plants were maintained by watering as needed. A fertilizer solution of Peter's 20-20-20 (10 pounds/5 gallons of water) plus Sprint 330, a Iron Chelate micronutrient, (113.5 grams/5 gallons of water) was injected into the water with an Anderson fertilizer injection system to provide approximately 219 ppm of nitrogen with each watering. Artificial lighting was used to supplement natural light to produce a 14 hour photoperiod and: an additional one hour light period was used between 1:00 am to 2:00 am for a night interruption. Greenhouse temperatures were targeted for 27° C. in the day and 21° C. at night. At 21 days after treatment, all plants were evaluated for injury as compared to control plants that were sprayed only with non-phytotoxic solvent.\n(§3) Colby's equation was used to calculate the expected additive herbicidal effect of the mixtures of Compound 21 and the mixture partners listed above. […]"}, "[2]": {"system": "Chenopodium album (CHEAL)", "assay": "Test F preemergence, alone and in mixture with rimsulfuron, CHEAL", "assay_type": "in vivo", "conditions": "21 days after treatment, 0-100 scale", "protocol": "as §1, §2, §3"}, "[3]": {"system": "Amaranthus rudis (AMATA)", "assay": "Test F preemergence, alone and in mixture with rimsulfuron, AMATA", "assay_type": "in vivo", "conditions": "21 days after treatment, 0-100 scale", "protocol": "as §1, §2, §3"}, "[4]": {"system": "Setaria faberii (SETFA)", "assay": "Test F preemergence, alone and in mixture with rimsulfuron, SETFA", "assay_type": "in vivo", "conditions": "21 days after treatment, 0-100 scale", "protocol": "as §1, §2, §3"}, "[5]": {"system": "Panicum dichotomiflorum (PANDI)", "assay": "Test F preemergence, alone and in mixture with rimsulfuron, PANDI", "assay_type": "in vivo", "conditions": "21 days after treatment, 0-100 scale", "protocol": "as §1, §2, §3"}, "[6]": {"system": "Digitaria sanguinalis (DIGSA)", "assay": "Test F preemergence, alone and in mixture with rimsulfuron, DIGSA", "assay_type": "in vivo", "conditions": "21 days after treatment, 0-100 scale", "procedure,_shortened": "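Greenhouse pot plants treated preemergence with compound at 70 and 105 g ai/ha, rimsulfuron at 8.8 and 17.5 g ai/ha, or mixtures; 27° C day/21° C night, 14 hour photoperiod. Injury scored at 21 days after treatment against solvent-sprayed controls; expected additive effect of mixtures calculated by Colby's equation.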"}, "[7]": {"system": "certain weeds", "assay": "Test F overall statement on synergism with rimsulfuron (Colby's equation)", "assay_type": "in vivo", "conditions": "combinations with rimsulfuron, preemergence", "protocol": "as §2, with “Abutilon theophrasti (ABUTH), Chenopodium album (CHEAL), Amaranthus rudis (AMATA), Setaria […]), Panicum dichotomiflorum (PANDI), and Digitaria sanguinalis (DIGSA) were grown from seed in pots of an artificial potting mixture in a greenhouse. Compounds of the present invention were applied at 70 and 105 g ai/ha preemergence. Rimsulfuron was applied at 8.8 and 17.5 g ai/ha. Mixtures of the compounds of the present invention and rimsulfuron were also applied. Following” for “Following”, “solvent. […] Colby's equation was used to calculate the expected additive herbicidal effect of the mixtures of Compound 21 and the mixture partners listed above. […]” for “solvent.”"}, "[8]": {"system": "barnyardgrass", "assay": "Test A barnyardgrass", "assay_type": "in vivo, Echinochloa crus-galli", "conditions": "0 to 10 scale where 0 is no effect and 10 is complete control", "protocol": "(§4) Seeds of barnyardgrass (Echinochloa crus-galli), crabgrass (Digitaria spp.), morningglory (Ipomoea spp.), and velvetleaf (Abutilon theophrasti) were planted into a sandy loam soil and treated preemergence by soil drench with test chemicals formulated in a non-phytotoxic solvent mixture which includes a surfactant At the same time, these crop and weed species were also treated postemergence sprayed to runoff, with test chemicals formulated in the same manner.\n(§5) Plants ranged in height from two to eighteen cm and were in the one to two leaf stage for the postemergence treatment. Treated plants and untreated controls were maintained in a greenhouse for approximately eleven days, after which all treated plants were compared to untreated controls and visually evaluated for injury. Plant response ratings, summarized in Table A, are based on a 0 to 10 scale where 0 is no effect and 10 is complete control."}, "[9]": {"system": "morningglory", "assay": "Test A morningglory", "assay_type": "in vivo, Ipomoea spp.", "conditions": "0 to 10 scale where 0 is no effect and 10 is complete control", "procedure,_shortened": "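Visual injury score, 0 (no effect) to 10 (complete control), vs untreated controls at ~11 d in greenhouse. Pre: soil drench on sandy loam. Post: spray to runoff, 1–2 leaf stage.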"}, "[10]": {"system": "velvetleaf", "assay": "Test A velvetleaf", "assay_type": "in vivo, Abutilon theophrasti", "conditions": "0 to 10 scale where 0 is no effect and 10 is complete control", "protocol": "as §4, §5"}, "[11]": {"conditions": "Alone: Cmpd. rate 70, Rimsulfuron 0"}, "[12]": {"conditions": "Alone: Cmpd. rate 105, Rimsulfuron 0"}}}
{"smiles": "CC(C)N(C(=O)n1oc(=O)n(C2CC2)c1=O)c1ccc(F)cc1", "note": "[Compound 242]", "values": [{"measurement": "ABUTH Observed", "setting": "[1]; [11]", "value": 50, "unit": "%"}, {"measurement": "ABUTH Observed", "setting": "[1]; [12]", "value": 70, "unit": "%"}, {"measurement": "CHEAL Observed", "setting": "[2]; [11]", "value": 30, "unit": "%"}, {"measurement": "CHEAL Observed", "setting": "[2]; [12]", "value": 100, "unit": "%"}, {"measurement": "AMATA Observed", "setting": "[3]; [11]", "value": 20, "unit": "%"}, {"measurement": "AMATA Observed", "setting": "[3]; [12]", "value": 55, "unit": "%"}, {"measurement": "SETFA Observed", "setting": "[4]; [11]", "value": 60, "unit": "%"}, {"measurement": "SETFA Observed", "setting": "[4]; [12]", "value": 75, "unit": "%"}, {"measurement": "PANDI Observed", "setting": "[5]; [11]", "value": 60, "unit": "%"}, {"measurement": "PANDI Observed", "setting": "[5]; [12]", "value": 80, "unit": "%"}, {"measurement": "DIGSA Observed", "setting": "[6]; [11]", "value": 100, "unit": "%"}, {"measurement": "DIGSA Observed", "setting": "[6]; [12]", "value": 100, "unit": "%"}, {"measurement": "Weed control of combination with rimsulfuron compared with expectation from Colby's equation", "setting": "[7]", "value": "better control of certain weeds than expected"}]}
{"smiles": "CC(C)N(C(=O)n1oc(=O)n(-c2ccc(Cl)cc2Cl)c1=O)c1ccc(F)cc1", "note": "[Compound 7, 4-(2,4-Dichlorophenyl)-N-(4-fluorophenyl)-N-(1-methylethyl)-3,5-dioxo-1,2,4-oxadiazolidine-2-carboxamide]", "values": [{"measurement": "melting point", "value": "57 to 60", "unit": "°C"}]}
{"smiles": "CCN(CC)C(=O)n1oc(=O)n(-c2c(C)cccc2C)c1=O", "note": "[Compound 2]", "values": [{"measurement": "Plant response rating, Barnyardgrass", "setting": "[8]; Postemergence, Rate 1000 g/ha", "value": 8}, {"measurement": "Plant response rating, Barnyardgrass", "setting": "[8]; Pre-emergence, Rate 2000 g/ha", "value": 9}, {"measurement": "Plant response rating, Morningglory", "setting": "[9]; Postemergence, Rate 1000 g/ha", "value": 0}, {"measurement": "Plant response rating, Morningglory", "setting": "[9]; Pre-emergence, Rate 2000 g/ha", "value": 0}, {"measurement": "Plant response rating, Velvetleaf", "setting": "[10]; Postemergence, Rate 1000 g/ha", "value": 0}, {"measurement": "Plant response rating, Velvetleaf", "setting": "[10]; Pre-emergence, Rate 2000 g/ha", "value": 0}]}
